Data published in article PMC13070491, “Single-nucleus transcriptomics, pharmacokinetics, and pharmacodynamics of CDK4/6 and mTOR inhibition in a Phase 0/1 trial of recurrent high-grade glioma” (Neuro-Oncology, 2025).
Values joined by “and” are separate entries in the source; they are usually repeats but may differ in a detail not shown here. Equal values may be shown once.

Assay: CNS penetration: total and unbound drug concentrations in tumor regions, CSF and plasma (LC-MS/MS, equilibrium dialysis);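 further: drug levels in patient tumor tissue from contrast-enhancing and non-enhancing regions sampled under MRI-guided neuronavigation, with plasma and CSF drawn during surgical resection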
Details: for Ribociclib.CSF / Ribociclib.Non-enhancing.tumor / Ribociclib.Plasma.conc / Ribociclib.Unbound.CSF / Ribociclib.Unbound.enhancing: per patient; for Kp at 120 h / Kp uu at 120 h / concentration at 5 days: human
[1] = Level 0: Ribociclib 400mg QD + Everolimus 2.5mg QD, sampling 1-3 Hours
[2] = Level 0: Ribociclib 400mg QD + Everolimus 2.5mg QD, sampling 23-25 Hours
[3] = Level 1: Ribociclib 600mg QD + Everolimus 2.5mg QD, sampling 1-3 Hours
[4] = Level 1: Ribociclib 600mg QD + Everolimus 2.5mg QD, sampling 7-9 Hours
[5] = Level 2: Ribociclib 600mg QD + Everolimus 5mg QD, sampling 7-9 Hours
[6] = Level 3: Ribociclib 600mg QD + Everolimus 10mg QD, sampling 7-9 Hours
[7] = Level 4: Ribociclib 600mg QD + Everolimus 50mg once on Day 5, sampling 7-9 Hours
[8] = Level 5: Ribociclib 600mg QD + Everolimus 60mg once on Day 5, sampling 7-9 Hours
[9] = Level 6: Ribociclib 600mg QD + Everolimus 70mg once on Day 5, sampling 7-9 Hours
[10] = enhancing tumor / plasma, oral, 400 mg
[11] = enhancing tumor / plasma, oral, 600 mg
[12] = non-enhancing tumor / plasma, oral, 400 mg
[13] = non-enhancing tumor / plasma, oral, 600 mg

Total Ribociclib concentration, CSF, Minimum (400 mg QD 5 days): 36 nM | Total Ribociclib concentration, CSF, Maximum (600 mg QD 5 days): 714 nM | Total Ribociclib concentration, CSF, Median (600 mg QD 5 days): 276 nM | Total Ribociclib concentration, CSF, Minimum (600 mg QD 5 days): 54 nM | Ribociclib.CSF [1]: 0.0707 | Ribociclib.Non-enhancing.tumor [1]: 6.684 | Ribociclib.Plasma.conc [1]: 2.09 and 0.31 | Ribociclib.Unbound.CSF [1]: 0.2008 and 0.0206 | Ribociclib.Unbound.enhancing [1]: 1.4 and 0.419 | Ribociclib.CSF [2]: 0.1931 | Ribociclib.Non-enhancing.tumor [2]: 3.834 | Ribociclib.Plasma.conc [2]: 0.402 and 0.1417 | Ribociclib.Unbound.CSF [2]: 0.0928 | Ribociclib.Unbound.enhancing [2]: 0.92 and 0.1576 | Ribociclib.CSF [3]: 0.0543 | Ribociclib.Non-enhancing.tumor [3]: 7.2608 | Ribociclib.Plasma.conc [3]: 0.1944 | Ribociclib.Unbound.CSF [3]: 0.0207 | Ribociclib.Unbound.enhancing [3]: 0.4205 | Ribociclib.CSF [4]: 0.4701 and 0.7139 | Ribociclib.Non-enhancing.tumor [4]: 30.0728 and 22.3048 | Ribociclib.Plasma.conc [4]: 3.4168 and 1.3485 | Ribociclib.Unbound.CSF [4]: 0.2858 and 0.3152 | Ribociclib.Unbound.enhancing [4]: 4.5 and 3.49 | Ribociclib.CSF [5]: 0.1529 and 0.1758 | Ribociclib.Non-enhancing.tumor [5]: 8.1928 and 11.9076 and 16.496 | Ribociclib.Plasma.conc [5]: 1.151 and 0.8853 and 1.3745 | Ribociclib.Unbound.CSF [5]: 0.1531 and 0.1613 | Ribociclib.Unbound.enhancing [5]: 1.0167 and 1.1852 and 2.1093 | Ribociclib.CSF [6]: 0.2760 and 0.5558 and 0.3667 | Ribociclib.Non-enhancing.tumor [6]: 19.9804 and 11.7316 and 41.6376 | Ribociclib.Plasma.conc [6]: 1.0816 and 1.6009 | Ribociclib.Unbound.CSF [6]: 0.3027 | Ribociclib.Unbound.enhancing [6]: 1.1229 and 3.39 and 0.0047 | Ribociclib.CSF [7]: 0.1707 and 0.4561 | Ribociclib.Non-enhancing.tumor [7]: 4.2684 and 4.8112 | Ribociclib.Plasma.conc [7]: 0.7506 and 1.3586 and 0.9058 | Ribociclib.Unbound.CSF [7]: 0.1543 and 0.2120 and 0.3373 | Ribociclib.Unbound.enhancing [7]: 0.6494 and 0.9352 and 3.453 | Ribociclib.CSF [8]: 0.0807 and 0.3122 and 0.4398 | Ribociclib.Non-enhancing.tumor [8]: 12.238 and 4.126 | Ribociclib.Plasma.conc [8]: 1.163 and 1.8703 and 1.3349 | Ribociclib.Unbound.CSF [8]: 0.0799 and 0.2965 | Ribociclib.Unbound.enhancing [8]: 1.348 and 0.6511 and 0.2648 | Ribociclib.CSF [9]: 0.5436 and 0.0672 and 0.1419 | Ribociclib.Non-enhancing.tumor [9]: 17.8508 and 1.3144 and 1.5982 | Ribociclib.Plasma.conc [9]: 1.4899 and 0.302 and 1.3235 | Ribociclib.Unbound.CSF [9]: 0.1898 and 0.0709 and 0.0882 | Ribociclib.Unbound.enhancing [9]: 1.0559 and 0.5673 and 0.5436 | Kp at 120 h (CSF / plasma, oral, 400 mg): 0.25 | Kp uu at 120 h (CSF / plasma, oral, 400 mg): 1.15 | Kp at 120 h (CSF / plasma, oral, 600 mg): 0.22 | Kp uu at 120 h (CSF / plasma, oral, 600 mg): 0.84 | concentration at 5 days (CSF, oral, Total Ribociclib concentration, Maximum, 400 mg QD 5 days): 216 nM | concentration at 5 days (CSF, oral, Total Ribociclib concentration, Median, 400 mg QD 5 days): 137 nM | concentration at 5 days (CSF, oral, Unbound Ribociclib concentration, Maximum, 400 mg QD 5 days): 201 nM | concentration at 5 days (CSF, oral, Unbound Ribociclib concentration, Maximum, 600 mg QD 5 days): 337 nM | concentration at 5 days (CSF, oral, Unbound Ribociclib concentration, Median, 400 mg QD 5 days): 82 nM | concentration at 5 days (CSF, oral, Unbound Ribociclib concentration, Median, 600 mg QD 5 days): 212 nM | concentration at 5 days (CSF, oral, Unbound Ribociclib concentration, Minimum, 400 mg QD 5 days): 21 nM | concentration at 5 days (CSF, oral, Unbound Ribociclib concentration, Minimum, 600 mg QD 5 days): 21 nM | Kp at 120 h [10]: 12.9 | Kp uu at 120 h [10]: 5.1 | Kp at 120 h [11]: 14.1 | Kp uu at 120 h [11]: 5.67 | concentration at 5 days (enhancing tumor, oral, Total Ribociclib concentration, Maximum, 400 mg QD 5 days): 9900 nM | concentration at 5 days (enhancing tumor, oral, Total Ribociclib concentration, Maximum, 600 mg QD 5 days): 49400 nM | concentration at 5 days (enhancing tumor, oral, Total Ribociclib concentration, Median, 400 mg QD 5 days): 4060 nM | concentration at 5 days (enhancing tumor, oral, Total Ribociclib concentration, Median, 600 mg QD 5 days): 14800 nM | concentration at 5 days (enhancing tumor, oral, Total Ribociclib concentration, Minimum, 400 mg QD 5 days): 2330 nM | concentration at 5 days (enhancing tumor, oral, Total Ribociclib concentration, Minimum, 600 mg QD 5 days): 753 nM | concentration at 5 days (enhancing tumor, oral, Unbound Ribociclib concentration, Maximum, 400 mg QD 5 days): 1400 nM | concentration at 5 days (enhancing tumor, oral, Unbound Ribociclib concentration, Maximum, 600 mg QD 5 days): 4500 nM | concentration at 5 days (enhancing tumor, oral, Unbound Ribociclib concentration, Median, 400 mg QD 5 days): 375 nM | concentration at 5 days (enhancing tumor, oral, Unbound Ribociclib concentration, Median, 600 mg QD 5 days): 1040 nM | concentration at 5 days (enhancing tumor, oral, Unbound Ribociclib concentration, Minimum, 400 mg QD 5 days): 158 nM | concentration at 5 days (enhancing tumor, oral, Unbound Ribociclib concentration, Minimum, 600 mg QD 5 days): 4.7 nM | Kp at 120 h [12]: 8.35 | Kp uu at 120 h [12]: 3.19 | Kp at 120 h [13]: 8.8 | Kp uu at 120 h [13]: 3.78 | concentration at 5 days (non-enhancing tumor, oral, Total Ribociclib concentration, Maximum, 400 mg QD 5 days): 15000 nM | concentration at 5 days (non-enhancing tumor, oral, Total Ribociclib concentration, Maximum, 600 mg QD 5 days): 41600 nM | concentration at 5 days (non-enhancing tumor, oral, Total Ribociclib concentration, Median, 400 mg QD 5 days): 3130 nM | concentration at 5 days (non-enhancing tumor, oral, Total Ribociclib concentration, Median, 600 mg QD 5 days): 11700 nM | concentration at 5 days (non-enhancing tumor, oral, Total Ribociclib concentration, Minimum, 400 mg QD 5 days): 1370 nM | concentration at 5 days (non-enhancing tumor, oral, Total Ribociclib concentration, Minimum, 600 mg QD 5 days): 1310 nM | concentration at 5 days (non-enhancing tumor, oral, Unbound Ribociclib concentration, Maximum, 400 mg QD 5 days): 1770 nM | concentration at 5 days (non-enhancing tumor, oral, Unbound Ribociclib concentration, Maximum, 600 mg QD 5 days): 2340 nM | concentration at 5 days (non-enhancing tumor, oral, Unbound Ribociclib concentration, Median, 400 mg QD 5 days): 170 nM | concentration at 5 days (non-enhancing tumor, oral, Unbound Ribociclib concentration, Median, 600 mg QD 5 days): 693 nM | concentration at 5 days (non-enhancing tumor, oral, Unbound Ribociclib concentration, Minimum, 400 mg QD 5 days): 65 nM | concentration at 5 days (non-enhancing tumor, oral, Unbound Ribociclib concentration, Minimum, 600 mg QD 5 days): 68 nM | concentration at 5 days (non-enhancing tumor, po, unbound drug concentration in the non-enhancing tumor regions, range, ribociclib 400 mg daily oral, 5 days): 65 to 1770 nM | concentration at 5 days (non-enhancing tumor, po, unbound drug concentration in the non-enhancing tumor regions, range, ribociclib 600 mg daily oral, 5 days): 68 to 2340 nM
SMILES: CN(C)C(=O)c1cc2cnc(Nc3ccc(N4CCNCC4)cn3)nc2n1C1CCCC1 [Ribociclib, ribociclib]
